Measured values as given in ChEMBL document CHEMBL6087460, “Generating a Peptide Library Using the Repeats of Amino Acid Scaffolds Created by Sliding the Framework of a 7-mer Human Chemerin Segment and Discovery of Potent Antibacterial and Antimycobacterial Peptides” (J Med Chem, 2025).
The source made the active and inactive calls. The calls are words filed in the database; no cut-off is given here. Where a SMILES comes first, the peptide text is derived from it.

Assays:
[1] = Drug localization in cytoplasm of Escherichia coli ATCC 25922 at 3 times MIC by confocal microscopy; assay type: ADME, subcellular
Escherichia coli [2] = test: Bactericidal activity against Escherichia coli ATCC 25922 at MIC incubated for 30 mins by time kill assay; assay type: functional, organism-based
[3] = tested on: Mycolicibacterium smegmatis; test: Antimycobacterial activity against Mycobacterium smegmatis assessed as reduction in bacterial growth at 2 times MIC pretreated for 1 hr followed by compound removal and subsequent culturing in fresh media without compound for 24 hrs measured after 4 days; assay type: functional, organism-based
Staphylococcus aureus [4] = test: Disruption of membrane integrity in Staphylococcus aureus ATCC 25923 by PI staining based analysis; assay type: functional, organism-based
Escherichia coli [5] = test: Antibacterial activity against Escherichia coli ATCC 25922 incubated for 16 to 18 hrs by broth dilution assay; assay type: functional; settings: time 16-18 hrs
Staphylococcus aureus [6] = test: Bactericidal activity against Staphylococcus aureus ATCC 25923 incubated for 16 to 18 hrs; assay type: functional; settings: time 16-18 hrs
[7] = Cytotoxicity against mouse 3T3-L1 cells assessed as cell viability at 100 uM incubated for 24 hrs by MTT assay relative to control; assay type: toxicity, cell-based; settings: 3T3-L1 cells, read-out: Activity
[8] = tested on: Mycolicibacterium smegmatis; test: Antitubercular activity against Mycobacterium smegmatis incubated for 24 hrs by rezasurin dye based assay; assay type: functional
Staphylococcus aureus [9] = test: Induction of resistance development in Staphylococcus aureus ATCC 25923 assessed as fold increase in MIC at sub-MIC measured after 30 passages relative to control; assay type: functional
Escherichia coli [10] = test: Bactericidal activity against Escherichia coli ATCC 25922 at MIC incubated for 45 mins by time kill assay; assay type: functional, organism-based
Staphylococcus aureus [11] = test: Induction of resistance development in methicillin-resistant Staphylococcus aureus BAA-44 assessed as fold increase in MIC at sub-MIC measured after 30 passages relative to control; assay type: functional
Staphylococcus aureus [12] = test: Induction of resistance development in Staphylococcus aureus ATCC 25923 assessed as fold increase in MIC at sub-MIC measured after 25 passages relative to control; assay type: functional
Staphylococcus aureus [13] = test: Antibacterial activity against Staphylococcus aureus ATCC 25923 incubated for 16 to 18 hrs by broth dilution assay; assay type: functional; settings: time 16-18 hrs
[14] = Toxicity in BALB/c mouse infected with Mycobacterium bovis BCG assessed as animal survival at 2.5 to 5 mg/kg, iv administered once a day for 2 weeks; assay type: organism-based; settings: in vivo, 336 h, dose 2.5-5 mg/kg
[15] = Hemolytic activity in human RBC measured after 40 mins by absorbance based assay; assay type: toxicity, cell-based, Erythrocyte; settings: human red blood cells
Escherichia coli [16] = test: Bactericidal activity against Escherichia coli ATCC 25922 incubated for 16 to 18 hrs; assay type: functional; settings: time 16-18 hrs
[17] = Cytotoxicity against rat L6 cells assessed as cell viability at 100 uM incubated for 24 hrs by MTT assay relative to control; assay type: toxicity, cell-based; settings: L6 cells, read-out: Activity
Staphylococcus aureus [18] = test: Disruption of plasma membrane integrity in Staphylococcus aureus ATCC 25923 by SYTOX-Green uptake assay; assay type: functional, organism-based
Escherichia coli [19] = test: Induction of membrane depolarization in Escherichia coli ATCC 25922 by diSC3-5 dye based analysis; assay type: functional, organism-based
Escherichia coli [20] = test: Disruption of plasma membrane integrity in Escherichia coli ATCC 25922 by SYTOX-Green uptake assay; assay type: functional, organism-based
Escherichia coli [21] = test: Induction of cell membrane damage in Escherichia coli ATCC 25922 at 3 times MIC incubated for 60 mins by SEM analysis; assay type: functional, organism-based
Staphylococcus aureus [22] = test: Bactericidal activity against Staphylococcus aureus ATCC 25923 at MIC incubated for 30 mins by time kill assay; assay type: functional, organism-based
Escherichia coli [23] = test: Induction of resistance development in Escherichia coli ATCC 25922 assessed as fold increase in MIC at sub-MIC measured after 30 passages relative to control; assay type: functional
Staphylococcus aureus [24] = test: Induction of membrane depolarization in Staphylococcus aureus ATCC 25923 by diSC3-5 dye based analysis; assay type: functional, organism-based
Bacillus subtilis = test: Antibacterial activity against Bacillus subtilis 6633 incubated for 16 to 18 hrs by broth dilution assay; assay type: functional; settings: time 16-18 hrs
Staphylococcus aureus [25] = test: Induction of resistance development in methicillin-resistant Staphylococcus aureus 33591 assessed as fold increase in MIC at sub-MIC measured after 30 passages relative to control; assay type: functional
Escherichia coli [26] = test: Antibacterial activity against Escherichia coli ATCC 25922 incubated for 16 to 18 hrs in presence of 10 percent human serum by broth dilution assay; assay type: functional; settings: time 16-18 hrs
Staphylococcus aureus [27] = test: Antibacterial activity against Staphylococcus aureus ATCC 25923 incubated for 16 to 18 hrs in presence of 10 percent human serum by broth dilution assay; assay type: functional; settings: time 16-18 hrs
Klebsiella pneumoniae = test: Antibacterial activity against Klebsiella pneumoniae ATCC 27736 incubated for 16 to 18 hrs by broth dilution assay; assay type: functional; settings: time 16-18 hrs
Staphylococcus aureus [28] = test: Induction of cell membrane damage in Staphylococcus aureus ATCC 25923 at 3 times MIC incubated for 60 mins by SEM analysis; assay type: functional, organism-based
Staphylococcus aureus [29] = test: Antibacterial activity against methicillin-resistant Staphylococcus aureus BAA-44 incubated for 16 to 18 hrs by broth dilution assay; assay type: functional; settings: time 16-18 hrs
[30] = Retention time of compound by RP-HPLC method; assay type: physicochemical
[31] = Hemolytic activity in human RBC assessed as disruption of membrane integrity by Alexa Fluor-Annexin V staining based analysis; assay type: toxicity, cell-based; settings: erythrocyte
[32] = Toxicity in mouse assessed as change in serum AST level at 15 mg/kg, iv administered each day for 5 days measured after 7 days post-last dose; assay type: organism-based; settings: in vivo, 120 h, time 5 day
Staphylococcus aureus [33] = test: Bactericidal activity against Staphylococcus aureus ATCC 25923 at MIC incubated for 45 mins by time kill assay; assay type: functional, organism-based
[34] = Toxicity in mouse assessed as change in serum ALT level at 15 mg/kg, iv administered each day for 5 days measured after 7 days post-last dose; assay type: organism-based; settings: in vivo, 120 h, time 5 day
Staphylococcus aureus [35] = test: Antibacterial activity against methicillin-resistant Staphylococcus aureus 33591 incubated for 16 to 18 hrs by broth dilution assay; assay type: functional; settings: time 16-18 hrs
[36] = tested on: Mycolicibacterium smegmatis; test: Disruption of cell membrane integrity in Mycobacterium smegmatis incubated for 2 hrs by EtBr uptake assay; assay type: functional, organism-based
[37] = Toxicity in mouse assessed as animal survival at 15 mg/kg, iv administered each day for 5 days measured after 7 days post-last dose; assay type: organism-based; settings: in vivo, 120 h, time 5 day
Escherichia coli [38] = test: Induction of resistance development in Escherichia coli ATCC 25922 assessed as fold increase in MIC at sub-MIC measured after 25 passages relative to control; assay type: functional
Pseudomonas aeruginosa = test: Antibacterial activity against Pseudomonas aeruginosa ATCC BAA-427 incubated for 16 to 18 hrs by broth dilution assay; assay type: functional; settings: time 16-18 hrs
Escherichia coli [39] = test: Disruption of membrane integrity in Escherichia coli ATCC 25922 by PI staining based analysis; assay type: functional, organism-based

CC(C)C[C@H](NC(=O)[C@H](CCCNC(=N)N)NC(=O)CNC(=O)[C@H](CC(C)C)NC(=O)[C@H](CCCNC(=N)N)NC(=O)CNC(=O)[C@H](CC(C)C)NC(=O)[C@H](CCCNC(=N)N)NC(=O)CNC(=O)[C@H](CC(C)C)NC(=O)[C@H](CCCNC(=N)N)NC(=O)CNC(=O)[C@H](CC(C)C)NC(=O)[C@H](CCCNC(=N)N)NC(=O)CNC(=O)c1cc(C(=O)O)ccc1-c1c2ccc(=[N+](C)C)cc-2oc2cc(N(C)C)ccc12)C(=O)O.[Cl-] (HELM PEPTIDE1{[CN(C)c1ccc2c(-c3ccc(C(=O)O)cc3C(=O)[*:2])c3ccc(=[N+](C)C)cc-3oc2c1].G.R.L.G.R.L.G.R.L.G.R.L.G.R.L}$$$$V2.0)
Drug uptake [1]: Active

H-VLGRVLGRVLGRVLGR-OH
Activity (Escherichia coli [2]): Active; Emerged As Swiftest Molecule
Activity [3]: Active
Activity (Staphylococcus aureus [4]): Active
MIC (Escherichia coli [5]): 1.8 µM
MBC (Staphylococcus aureus [6]): 3.6 µM
viability at 24 h, 100 µM [7]: 75%
MIC [8]: 2.5 µM
fold change (FC) (Staphylococcus aureus [9]): 4
Activity (Escherichia coli [10]): Active
fold change (FC) (Staphylococcus aureus [11]): 4
fold change (FC) (Staphylococcus aureus [12]): 2
MIC (Staphylococcus aureus [13]): 3.6 µM
Activity [14]: Non-toxic
HC50 at 40 min [15]: 2 mM
MBC (Escherichia coli [16]): 3.6 µM
viability at 24 h, 100 µM [17]: 75%
Activity (Staphylococcus aureus [18]): Active
Activity (Escherichia coli [19]): Active
Activity (Escherichia coli [20]): Active
Activity (Escherichia coli [21]): Active
Activity (Staphylococcus aureus [22]): Active; Emerged As Swiftest Molecule
fold change (FC) (Escherichia coli [23]): 4
Activity (Staphylococcus aureus [24]): Active
MIC (Bacillus subtilis): 3.6 µM
fold change (FC) (Staphylococcus aureus [25]): 4
MIC (Escherichia coli [26]): 14.4 µM
MIC (Staphylococcus aureus [27]): 14.4 µM
MIC (Klebsiella pneumoniae): 3.6 µM
Activity (Staphylococcus aureus [28]): Active
MIC (Staphylococcus aureus [29]): 3.6 µM
Retention_time [30]: 20.54 min
Activity [31]: Non-toxic
Activity [32]: Non-toxic
Activity (Staphylococcus aureus [33]): Active
Activity [34]: Non-toxic
MIC (Staphylococcus aureus [35]): 7.3 µM
Activity [36]: inactive
Activity [37]: Non-toxic
fold change (FC) (Escherichia coli [38]): 2
MIC (Pseudomonas aeruginosa): 7.3 µM
Activity (Escherichia coli [39]): Active
